Results taken from ChEMBL document CHEMBL4190326, “Novel Gomisin B analogues as potential cytotoxic agents: Design, synthesis, biological evaluation and docking studies” (Eur J Med Chem, 2017).
pIC50: −log10 of the molar value. The source made the active and inactive calls. The calls are words filed in the database; no cut-off is given here.

Key:
A549 = assay: Cytotoxicity against human A549 cells assessed as reduction in cell viability measured after 48 hrs by SRB assay; format: functional, cell-based; settings: A549, 48 h
PANC-1 = assay: Cytotoxicity against human PANC1 cells assessed as reduction in cell viability measured after 48 hrs by SRB assay; format: functional, cell-based; settings: PANC-1, 48 h
SiHa = assay: Cytotoxicity against human SiHa cells assessed as reduction in cell viability measured after 48 hrs by SRB assay; format: functional, cell-based
HEK293 = assay: Cytotoxicity against HEK293 cells assessed as reduction in cell viability measured after 48 hrs by SRB assay; format: cell-based; settings: Homo sapiens, HEK293, 48 h
[1] = Selectivity index, ratio of IC50 for HEK293 cells to IC50 for human DU145 cells; format: toxicity; settings: HEK293 cells versus DU145 cells, read-out: Ratio IC50
IMR-32 = assay: Cytotoxicity against human IMR32 cells assessed as reduction in cell viability measured after 48 hrs by SRB assay; format: functional, cell-based; settings: IMR-32, 48 h
MDA-MB-231 = assay: Cytotoxicity against human MDA-MB-231 cells assessed as reduction in cell viability measured after 48 hrs by SRB assay; format: functional, cell-based; settings: MDA-MB-231, 48 h
DU-145 = assay: Cytotoxicity against human DU145 cells assessed as reduction in cell viability measured after 48 hrs by SRB assay; format: functional, cell-based; settings: DU-145, 48 h
Tubulin (Homo sapiens) [2] = molecular target: T1, Tubulin (Homo sapiens) (UniProt P68371+Q9H4B7+P0DPH7+P68366+Q13509+Q71U36+P04350+Q3ZCM7+P07437+P68363+Q9BQE3+Q6PEY2+Q13885+Q9BVA1+Q9BUF5); assay: Induction of tubulin polymerization in human HeLa cells assessed as increase in insoluble tubulin fraction after 24 hrs by Western blot analysis; format: cell-based
Tubulin (Homo sapiens) [3] = molecular target: T1, Tubulin (Homo sapiens); assay: Induction of tubulin polymerization in human HeLa cells assessed as multiple spindle formation after 24 hrs by DAPI staining/confocal microscopy-based immunofluorescence analysis; format: cell-based
Bos taurus = species: Bos taurus; assay: Inhibition of bovine brain tubulin polymerization measured for 1 hr at 1 min interval by fluorescence assay relative to control
HeLa = assay: Cell cycle arrest in human HeLa cells assessed as G2/M phase accumulation after 24 hrs by propidium iodide staining based flow cytometric analysis (reference value: 29.18%); format: functional

Row | Activity (Tubulin (Homo sapiens) [2]) | Activity (Tubulin (Homo sapiens) [3]) | fold change (FC) (Bos taurus) | SMILES | pIC50 (A549) | pIC50 (PANC-1) | pIC50 (SiHa) | pIC50 (HEK293) | selectivity ratio [1] | pIC50 (IMR-32) | pIC50 (MDA-MB-231) | pIC50 (DU-145) | Activity (HeLa)
1 |  |  |  | COc1cc2c(c(OC)c1OC)-c1c(cc3c(c1OC)OCO3)C[C@H](C)[C@@](C)(O)/C2=N/OCc1cn(-c2ccccc2C#N)nn1 | 4.03 | 4.06 | 4.06 | < 4.00 | 1.1 | 4.10 | 4.15 | 4.03 | 
2 |  |  |  | COc1cc2c(c(OC)c1OC)-c1c(cc3c(c1OC)OCO3)C[C@H](C)[C@@](C)(O)[C@H]2O | 4.03 | 4.11 | 4.17 | < 4.00 | 1.14 | 4.06 | 4.09 | 4.06 | 
3 |  |  |  | COc1cc2c(c(OC)c1OC)-c1c(cc3c(c1OC)OCO3)C[C@H](C)[C@@](C)(O)/C2=N/OCc1cn(-c2cc([N+](=O)[O-])ccc2Cl)nn1 | 4.02 | 4.03 | 4.02 | < 4.00 | 1.1 | 4.06 | 4.07 | 4.02 | 
4 |  |  |  | COc1cc(OC)c(-n2cc(CO/N=C3\c4cc(OC)c(OC)c(OC)c4-c4c(cc5c(c4OC)OCO5)C[C@H](C)[C@@]3(C)O)nn2)cc1OC | 4.06 | 4.11 | 4.16 | < 4.00 | 1.1 | 4.11 | 4.14 | 4.06 | 
5 |  |  |  | COc1cc2c(c(OC)c1OC)-c1c(cc3c(c1OC)OCO3)C[C@H](C)[C@@](C)(O)/C2=N/OCc1cn(CC(=O)Nc2ccccc2)nn1 | 4.03 | 4.04 | 4.05 | < 4.00 | 1.1 | 4.06 | 4.10 | 4.04 | 
6 |  |  |  | COc1cccc(-n2cc(CO/N=C3\c4cc(OC)c(OC)c(OC)c4-c4c(cc5c(c4OC)OCO5)C[C@H](C)[C@@]3(C)O)nn2)c1 | 4.02 | 4.01 | 4.04 | < 4.00 | 1.1 | 4.11 | 4.09 | 4.02 | 
7 | Active | Active | 2.68 | CC(=O)O[C@H]1C(=O)[C@@]2(C)[C@H]([C@H](OC(=O)c3ccccc3)[C@]3(O)C[C@H](OC(=O)[C@H](O)[C@@H](NC(=O)c4ccccc4)c4ccccc4)C(C)=C1C3(C)C)[C@]1(OC(C)=O)CO[C@@H]1C[C@@H]2O |  |  |  |  |  |  |  |  | 
8 |  |  |  | COc1cc2c(c(OC)c1OC)-c1c(cc3c(c1OC)OCO3)C[C@H](C)[C@@](C)(O)/C2=N/OCc1cn(-c2cc(C)cc(C)c2)nn1 | 4.04 | 4.05 | 4.07 | < 4.00 | 1.1 | 4.10 | 4.09 | 4.04 | 
9 |  |  |  | COc1cc(-n2cc(CO/N=C3\c4cc(OC)c(OC)c(OC)c4-c4c(cc5c(c4OC)OCO5)C[C@H](C)[C@@]3(C)O)nn2)cc(OC)c1Cl | 4.03 | 4.06 | 4.08 | < 4.00 | 1.1 | 4.10 | 4.14 | 4.02 | 
10 |  |  | 0.15 | COc1ccc(/C=C\c2cc(OC)c(OC)c(OC)c2)cc1O |  |  |  |  |  |  |  |  | 
11 |  |  |  | C/C=C(/C)C(=O)O[C@H]1c2cc(OC)c(OC)c(OC)c2-c2c(cc3c(c2OC)OCO3)C[C@H](C)[C@@]1(C)O [ARISANSCHININ N] | 4.26 | 4.27 | 4.29 | 4.28 | 1.6 | 4.18 | 4.22 | 4.19 | 
12 |  |  |  | COc1cc2c(c(OC)c1OC)-c1c(cc3c(c1OC)OCO3)C[C@H](C)[C@@](C)(O)/C2=N/OCc1cn(CC(=O)Nc2ccc(C)cc2)nn1 | 4.07 | 4.15 | 4.19 | < 4.00 | 1.15 | 4.10 | 4.14 | 4.06 | 
13 |  |  |  | COC(=O)Nc1nc2cc(C(=O)c3cccs3)ccc2[nH]1 [NOCODAZOLE] |  |  |  |  |  |  |  |  | 91.7%
